The text below walks through data of article PMC5357639 (Frontiers in Chemistry, 2017).

Series [1] can be described thus: in vivo. More on the design: species or system CD-1 mice. To be noted: iv; for level at 5 min: female, CD-1, mouse, 5 mg/kg; for Time within which peptide is cleared: mouse. From the text: A protocol to quantify Api88, Api137, and their major metabolites was established analog to that of oncocin derivatives, reported recently (Schmidt et al., [2016]). Briefly, an Alliance® 2695 HPLC system was coupled online to an ESI-QqLIT-MS (4,000 QTRAP®) equipped with a TurboV™ ion-spray source and operated in positive ion MRM mode using the Analyst® 1.6 software. Separation was achieved on a Jupiter C18-column (internal diameter 1 mm, length 150 mm, particle size 5 μm, pore size 300 Å) at 55 °C using a linear 5-min gradient from 2.7 to 20.7% aqueous acetonitrile containing ammonium formate (26 mmol/L, pH 3.0). Further details about instrumentation, MRM optimization, and MS settings are provided as Supplementary Material (Tables S1–S4, Method M1).
Female CD-1 mice (20–23 g weight, 7 weeks) were injected intravenously (10 mL/kg) in the tail vein with peptides (0.5 g/L) dissolved in sterile saline (0.9%, w/v) corresponding to doses of 5 mg/kg body weight. Animals (n = 4 per time point and peptide) were euthanized 5, 10, 20, 40, and 60 min post-injection by carbon dioxide inhalation and exsanguination. For further details of sample preparation and recovery experiments see Supplementary Material (Methods M2, M3).
Method M1: M ultiple reaction monitoring (MRM) transitions for apidaecin peptides Peptides (1 µ g/ m L ) were dissolved inaqueous acetonitrile (25% or 60% v/ v) containing either formate buffer (26 mmol/ L, pH 2.6, 3.0, 3.3 or 3.9 ) or formic acid (0.1% v/v ) and infused (flow rate 5 µ L/min, PHD 2600 s yringe pump) into the ES I-Q q L IT -MS (4000 QTRAP®) to optimize buffer composition and MRM. Transitions were selected from the tandem mass spectra (MS/MS) and confirmed on an ESI-QqTOF-MS (QSTAR® pulsar I) providing higher mass resolutions and mass accuracies than the QTRAP ®. The settings for declustering potential (DP), collision potential (CE), and collision cell exit potential (CXP) were optimized by ramping the respective pot entials using the compound optimization tool of the Anal yst® software.
Method M2: Sample preparation
Frozen organs (5 per group) wer e homogenized in sterile PBS (500 µ L) containing Protease Inhibitor Mix M (1% v/v; SERVA Electrophoresis GmbH, Heidelberg, German y) using an Ultra-Turr ax ® T25 basic (IKA-Werke, Staufen, German y, rotational speed 21,500 min-1) for 1 min. […]
Limits of detection (LOD) and quantification (LOQ) corresponded to the lowest peptide concentrations in water, plasma, or homogenates of brain, liver , and kidney providing a peak height exceeding the noise in the retention time window at least threefol d (LOD) or ten times (LOQ). Recover y r ates o f SPE and matrix effects were determined b y the p eak areas of spiked

A short description of series [2]: in vitro. The format is in vitro ADME, CD-1 mice. To be noted: female, CD-1, mouse, cerebrospinal or other body fluid. As to the method:
Peritoneal lavage (1.5–2 mL) were collected from three euthanized female CD-1 mice (14 weeks, 32–33 g) after injecting sterile PBS intraperitoneal (4 mL). Peptides were incubated with aliquots (95 μL) of fresh lavage (75 μg/mL, 37°C, 750 rpm). After 0, 30, and 60 min trichloroacetic acid (25 μL, 15% w/v) was added to the samples to precipitate proteins, incubated on ice (10 min), and centrifuged (5 min, 12.400 × g). Supernatants were neutralized with sodium hydroxide (1 mol/L) and analyzed by RP-HPLC using a Poroshell 120 SB-C18-column (2.1 mm internal diameter, 100 mm length, 2.7 μm particle size, 12 nm pore size, Agilent Technologies Inc., Santa Clara, CA, USA) at 60°C and an aqueous acetonitrile gradient containing trifluoroacetic acid (0.1%, v/v). Absorbance was recorded at a wavelength of 214 nm.

The target in series [3] is 70S ribosomes. To be noted: binding to 70S ribosomes; ref Krizsan et al., 2014; cited from earlier work. The text has this:
Antimicrobial peptides (AMPs) are considered as promising alternatives to common antibiotics that threateningly lose their therapeutic potentials against multidrug-resistant pathogens (Fox, [2013]; Wang et al., [2015]). In contrast to approved therapeutic peptide hormones, antimicrobial peptides have to be administered at much higher doses, which may amplify general drawbacks of peptide therapeutics. For example, the diabetes peptide drugs exenatide and pramlintide are given at daily doses of 20 μg (Byetta®; ~0.5 μg/kg) and 120 μg (Symlin®; ~1.5 μg/kg; Heine et al., [2005]; Hay et al., [2015]) ...

Where a SMILES comes first, the peptide text is derived from it. The star is where a group is joined. Orn(α-tetramethylguanidino) = CN(C)C(=N[C@@H](CCCN)C(=O)*)N(C)C Some results are limits rather than exact numbers.

The term fraction remaining denotes what is left of the initial amount, in per cent. One may read the Kd as the free concentration of one partner at which half of the binding sites on the other are occupied at equilibrium, for simple one-to-one binding. On to `CC[C@H](C)[C@H](NC(=O)[C@H](Cc1ccc(O)cc1)NC(=O)[C@@H](NC(=O)[C@@H]1CCCN1C(=O)[C@H](CCCNC(=N)N)NC(=O)[C@H](CC(N)=O)NC(=O)[C@H](CC(N)=O)NC(=O)[C@H](CCCN)N=C(N(C)C)N(C)C)C(C)C)C(=O)N1CCC[C@H]1C(=O)N[C@@H](CCCNC(=N)N)C(=O)N1CCC[C@H]1C(=O)N[C@@H](CCCNC(=N)N)C(=O)N1CCC[C@H]1C(=O)N1CCC[C@H]1C(=O)N[C@@H](Cc1c[nH]cn1)C(=O)N1CCC[C@H]1C(=O)N[C@@H](CCCNC(=N)N)C(=O)N[C@@H](CC(C)C)C(N)=O` [Api88] ({Orn(α-tetramethylguanidino)}-NNRPVYIPRPRPPHPRL-NH2), for which, in series [1], the level at 5 min is 1000 ng/mL and the “Time within which peptide is cleared” value is recorded as ~ 60 min. The compound also had a share remaining at 1 h, 75 μg/mL in series [2] above 60%. Further, in series [3], the Kd is 1200 nM.
In general, half-life refers to how long it takes for the measured level to halve. A high value points to slow loss. For the compound `CC[C@H](C)[C@H](NC(=O)[C@H](Cc1ccc(O)cc1)NC(=O)[C@@H](NC(=O)[C@@H]1CCCN1C(=O)[C@H](CCCNC(=N)N)NC(=O)[C@H](CC(N)=O)NC(=O)[C@H](CC(N)=O)NC(=O)[C@H](CCCN)N=C(N(C)C)N(C)C)C(C)C)C(=O)N1CCC[C@H]1C(=O)N[C@@H](CCCNC(=N)N)C(=O)N1CCC[C@H]1C(=O)N[C@@H](CCCNC(=N)N)C(=O)N1CCC[C@H]1C(=O)N1CCC[C@H]1C(=O)N[C@@H](Cc1c[nH]cn1)C(=O)N1CCC[C@H]1C(=O)N[C@@H](CCCNC(=N)N)C(=O)N[C@@H](CC(C)C)C(=O)O` [Api137] ({Orn(α-tetramethylguanidino)}-NNRPVYIPRPRPPHPRL-OH), in series [1], the level at 5 min turned out to be 400 ng/mL and the “Time within which peptide is cleared” value is recorded as ~ 60 min. Moreover, the half-life at 75 μg/mL in series [2] is around 20 min. Besides, in series [3], the Kd is 560 nM.
